{"source": "patent US20030162759A1", "about": "“Aldosterone blocker therapy to prevent or treat inflammation-related disorders” (priority 2000, published 2003)", "key": {"[1]": {"tested_on": "angiotensin II infused rats", "assay": "Assay A angiotensin II infusion model: systolic blood pressure by tail-cuff", "assay_type": "in vivo, rat", "details": "Wistar rats, 1% NaCl, angiotensin II 25 ng/min sc; eplerenone 100 mpk; 4 weeks", "procedure": "Assay A: In Vivo Angiotensin II Infusion Model\nMale Wistar rats (n—50, 10/group; BW=200 g)\n2. Angiotensin 11 (25 ng/min, sc via aizet minipump)\nSBP measured by tail-cuff every week"}, "[2]": {"tested_on": "angiotensin II infused rats", "assay": "Assay A angiotensin II infusion model: heart histology (coronary vascular inflammation, myocardial injury)", "assay_type": "in vivo, rat", "details": "out of ten animals per group; angiotensin II/salt, 4 weeks; eplerenone 100 mpk"}}, "data": [{"substance": "angiotensin II: angiotensin II, 25 ng/min sc via minipump, used to induce hypertension with vascular inflammation in rats (DRVYIHPF; Angiotensin-2; UniProt P01015 25-32, looked up) [reference compound]", "values": [{"measurement": "Systolic Blood Pressure", "setting": "[1]", "value": "Systolic blood pressure increased"}, {"measurement": "Animals with vascular inflammatory lesions in the coronary arteries", "setting": "[2]", "value": "Seven out of the ten"}]}]}
